According to US7790895B2, “Quinoline derivatives as potassium ion channel openers” (Janssen Pharmaceutica NV, priority 2005, dated 2010):

Molecular target: T1, KATP channels (Homo sapiens, UniProt O60706)
T1 construct: TE671 human medulloblastoma cells were obtained from ATCC; host or cells: TE671 human medulloblastoma cells
Assay: Potassium Channel Assay (FLIPR membrane potential, KATP channel opening)
Format: cell-based
Details: TE671 human medulloblastoma cells, Membrane Potential Assay Dye, room temperature
Protocol: TE671 human medulloblastoma cells were obtained from ATCC and grown in Dulbecco's modified Eagle's medium (DMEM) supplemented with 10% fetal bovine serum, 100 U/ml penicillin and 100 U/ml streptomycine.
The day before testing, the cells were plated in black 96-well plates at 50K/well. On the day of testing, the growth media was removed, then 100 μl of FLIPR buffer (20 mM HEPES, 120 mM NaCl, 2 mM KCl, 2 mM CaCl2, 1 mM MgCl2, 5 mM Glucose) and 100 μl of Membrane Potential Assay Dye (Molecular Devices) dissolved in FLIPR buffer were added to each well. The cells were incubated at room temperature for 15 to 30 min.
The effect of test compounds on KATP channels were evaluated on a fluorometric imaging plate reader (FLIPR, Molecular Devices) at room temperature. After a baseline period, 50 μl of 5× stock solution of test compound prepared in FLIPR buffer was added and fluorescence change was monitored for 3 minutes. After this reading, glyburide, a KATP channel blocker, was added to a final concentration of 5 μM to check the specificity of the test compound as a KATP channel opener. Hyperpolarization resulting from KATP channel opening was observed as a decrease in fluorescence intensity.

T1 sequence (O60706 1-1549 isoform O60706-2): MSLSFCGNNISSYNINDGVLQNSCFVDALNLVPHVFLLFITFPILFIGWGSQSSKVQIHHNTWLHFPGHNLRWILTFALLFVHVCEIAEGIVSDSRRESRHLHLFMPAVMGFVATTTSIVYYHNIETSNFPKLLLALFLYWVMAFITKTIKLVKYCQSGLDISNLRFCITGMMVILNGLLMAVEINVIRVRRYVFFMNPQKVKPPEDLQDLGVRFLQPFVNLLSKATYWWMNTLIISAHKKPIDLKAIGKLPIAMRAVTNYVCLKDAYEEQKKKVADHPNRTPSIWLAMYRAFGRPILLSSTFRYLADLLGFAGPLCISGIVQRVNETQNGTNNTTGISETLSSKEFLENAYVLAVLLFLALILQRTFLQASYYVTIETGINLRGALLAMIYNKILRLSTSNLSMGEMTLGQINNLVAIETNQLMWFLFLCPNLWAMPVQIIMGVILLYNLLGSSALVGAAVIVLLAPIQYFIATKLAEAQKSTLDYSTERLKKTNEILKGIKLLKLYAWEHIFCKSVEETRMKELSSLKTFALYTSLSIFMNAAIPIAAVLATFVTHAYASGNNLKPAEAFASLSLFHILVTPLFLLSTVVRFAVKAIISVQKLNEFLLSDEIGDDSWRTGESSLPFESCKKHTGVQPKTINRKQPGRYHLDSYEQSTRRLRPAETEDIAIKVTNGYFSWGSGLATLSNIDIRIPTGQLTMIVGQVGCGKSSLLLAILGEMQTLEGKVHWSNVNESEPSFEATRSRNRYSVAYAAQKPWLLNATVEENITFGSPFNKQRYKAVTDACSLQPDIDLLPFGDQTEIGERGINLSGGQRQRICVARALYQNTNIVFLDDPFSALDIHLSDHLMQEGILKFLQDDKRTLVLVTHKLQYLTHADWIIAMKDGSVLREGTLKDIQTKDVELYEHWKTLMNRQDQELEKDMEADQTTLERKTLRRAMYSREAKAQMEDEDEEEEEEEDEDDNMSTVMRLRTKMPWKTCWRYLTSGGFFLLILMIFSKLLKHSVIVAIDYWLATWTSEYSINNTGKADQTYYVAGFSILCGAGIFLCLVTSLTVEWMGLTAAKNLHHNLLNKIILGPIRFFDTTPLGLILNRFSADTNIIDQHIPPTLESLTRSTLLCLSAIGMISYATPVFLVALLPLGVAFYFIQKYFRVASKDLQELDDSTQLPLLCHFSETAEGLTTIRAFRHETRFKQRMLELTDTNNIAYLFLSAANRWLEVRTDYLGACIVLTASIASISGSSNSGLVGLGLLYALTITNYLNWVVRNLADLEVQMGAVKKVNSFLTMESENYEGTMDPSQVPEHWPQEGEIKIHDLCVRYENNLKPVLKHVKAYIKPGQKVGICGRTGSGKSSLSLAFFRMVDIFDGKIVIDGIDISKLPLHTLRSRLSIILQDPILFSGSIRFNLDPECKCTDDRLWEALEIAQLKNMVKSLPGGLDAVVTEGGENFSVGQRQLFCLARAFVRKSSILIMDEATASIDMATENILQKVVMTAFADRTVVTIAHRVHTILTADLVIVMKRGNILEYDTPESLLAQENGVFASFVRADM
T1 sequence (Q14654 whole entry partner): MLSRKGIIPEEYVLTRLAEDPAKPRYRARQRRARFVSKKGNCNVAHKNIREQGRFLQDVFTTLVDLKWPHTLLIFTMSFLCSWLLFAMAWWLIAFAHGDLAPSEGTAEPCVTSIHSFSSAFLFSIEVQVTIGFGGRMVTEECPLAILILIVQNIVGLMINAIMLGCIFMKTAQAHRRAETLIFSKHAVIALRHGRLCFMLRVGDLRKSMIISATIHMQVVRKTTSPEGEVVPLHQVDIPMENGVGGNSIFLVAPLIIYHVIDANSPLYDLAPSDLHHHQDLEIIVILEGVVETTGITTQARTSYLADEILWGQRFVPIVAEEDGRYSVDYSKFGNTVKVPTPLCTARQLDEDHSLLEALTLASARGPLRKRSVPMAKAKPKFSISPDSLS

Row | SMILES | EC50 | % Stimulation (test concentration not given)
1 | N#Cc1cccc(-c2ccncc2C(O)c2ccc(Cl)c(Cl)c2)c1 (centres unmarked) [Compound 24, 3-{3-[(3,4-Dichloro-phenyl)-hydroxy-methyl]-pyridin-4-yl}-benzonitrile] | 14.5 µM | 
2 | Cc1ccccc1C(O)c1cnccc1-c1cccc(C#N)c1 (centres unmarked) [Compound 31, 3-{3-[Hydroxy-(2-methyl-phenyl)-methyl]-pyridin-4-yl}-benzonitrile] | 15 µM | 
3 | N#Cc1cccc(-c2ccncc2C(O)c2ccc(F)c(F)c2)c1 (centres unmarked) [Compound 23, 3-{3-[(3,4-Difluoro-phenyl)-hydroxy-methyl]-pyridin-4-yl}-benzonitrile] | 11.4 µM | 
4 | COc1ccc(C=O)cc1-c1ccncc1C=O [Compound 53, 4-(5-Formyl-2-methoxy-phenyl)-pyridine-3-carbaldehyde] | > 30 µM | 30%
5 | Cc1ccc(F)cc1C(O)c1cnccc1-c1cccc(C#N)c1 (centres unmarked) [Compound 38, 3-{3-[(5-Fluoro-2-methyl-phenyl)-hydroxy-methyl]-pyridin-4-yl}-benzonitrile] | > 30 µM | 
6 | N#Cc1cccc(-c2ccncc2CO)c1 [Compound 50, 3-(3-Hydroxymethyl-pyridin-4-yl)-benzonitrile] | > 30 µM | 

The remaining lines, values ahead:

Row | EC50 | % Stimulation (test concentration not given) | SMILES
7 | > 30 µM |  | CCOC(=O)c1ccc(-c2c(C(=O)OCC)cnc3cc(C(F)(F)F)ccc23)cc1 [Compound 4, 4-(4-Ethoxycarbonyl-phenyl)-7-trifluoromethyl-quinoline-3-carboxylic acid ethyl ester]
8 | > 30 µM |  | CCOC(=O)c1cnc2cc(C(F)(F)F)ccc2c1-c1cc(C(F)(F)F)ccc1F [Compound 8, 4-(2-Fluoro-5-trifluoromethyl-phenyl)-7-trifluoromethyl-quinoline-3-carboxylic acid ethyl ester]
9 | 8.48 µM |  | Cc1ccc(C(O)c2cnccc2-c2cccc(C#N)c2)cc1 (centres unmarked) [Compound 32, 3-{3-[Hydroxy-(4-methyl-phenyl)-methyl]-pyridin-4-yl}-benzonitrile]
10 | 7.97 µM |  | CC(C)C(O)c1cnccc1Br (centres unmarked) [Compound 63, 1-(4-Bromo-pyridin-3-yl)-2-methyl-propan-1-ol]
